Measurements reported in ChEMBL document CHEMBL1201862, “PubChem BioAssay data set” (2004).
Active and inactive are the calls of the source.

How the values were obtained:
Jurkat [1] = experiment: antigen receptor-induced NF-kB inhibitors, dose response, Jurkat, luciferase reporter, luminescence, B- and T-cell (AID 489004); format: functional, cell-based; conditions: Homo sapiens;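 also: NF-kB luciferase reporter Jurkat cells stimulated with PMA plus ionomycin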
[2] = cytotoxicity in HEK-293T NF-kB-Luc cells, dose response, cytotoxicity control for B/T-cell NF-kB inhibitor project, cell-based, uHTS hits (AID 489019); format: functional;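 also: IC50 reflects cytotoxicity as loss of cell viability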
[3] = molecular target: T1, Microphthalmia-associated transcription factor (Homo sapiens, UniProt O75030); experiment: TRPM1 promoter luciferase signal decrease, dose response, MITF inhibitor project, cell-based, SK-MEL-5, cherry-picked, set 3 (AID 493073); format: functional
T1 sequence (O75030 whole entry): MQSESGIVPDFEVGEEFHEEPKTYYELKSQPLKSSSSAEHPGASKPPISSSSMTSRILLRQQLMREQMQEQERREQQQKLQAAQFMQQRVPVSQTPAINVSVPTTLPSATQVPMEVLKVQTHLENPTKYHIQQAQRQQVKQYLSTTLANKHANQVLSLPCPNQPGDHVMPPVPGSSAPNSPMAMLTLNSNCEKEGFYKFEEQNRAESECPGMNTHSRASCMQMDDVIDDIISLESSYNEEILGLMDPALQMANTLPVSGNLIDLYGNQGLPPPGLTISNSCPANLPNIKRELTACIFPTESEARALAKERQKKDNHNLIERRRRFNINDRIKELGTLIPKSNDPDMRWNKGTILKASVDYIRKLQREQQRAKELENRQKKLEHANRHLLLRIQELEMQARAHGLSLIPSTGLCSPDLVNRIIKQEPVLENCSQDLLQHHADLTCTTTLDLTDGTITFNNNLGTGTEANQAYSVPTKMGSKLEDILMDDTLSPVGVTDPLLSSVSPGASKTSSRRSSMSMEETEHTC

Paired box protein Pax-8 = Paired box protein Pax-8 (Homo sapiens, UniProt Q06710); experiment: inhibitors of PAX8-driven TPO luciferase reporter, dose response, RMG-I cells, cherry-pick (AID 687027); format: functional, cell-based;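 also: luciferase reporter driven by Pax8 target thyroperoxidase promoter measured by SteadyGlo luminescence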
Chain of Paired box protein Pax-8 (Q06710 whole entry): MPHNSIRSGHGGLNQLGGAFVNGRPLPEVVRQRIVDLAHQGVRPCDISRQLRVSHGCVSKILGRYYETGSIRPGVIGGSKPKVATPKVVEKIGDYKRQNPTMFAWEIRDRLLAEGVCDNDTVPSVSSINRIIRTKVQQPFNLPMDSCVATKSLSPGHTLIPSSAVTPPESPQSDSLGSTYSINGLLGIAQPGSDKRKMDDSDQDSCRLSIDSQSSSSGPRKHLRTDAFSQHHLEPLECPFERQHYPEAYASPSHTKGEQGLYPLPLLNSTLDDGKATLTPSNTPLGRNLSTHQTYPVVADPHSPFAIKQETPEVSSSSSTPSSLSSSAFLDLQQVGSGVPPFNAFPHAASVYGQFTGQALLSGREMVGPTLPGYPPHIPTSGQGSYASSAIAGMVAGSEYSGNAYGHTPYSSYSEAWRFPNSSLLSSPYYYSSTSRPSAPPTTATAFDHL

[4] = A549 cell cytotoxicity, dose response, cytotoxicity control, plate reader, cherry-pick, antagonist series (AID 743412); format: functional, cell-based
[5] = HepG2 cell cytotoxicity, dose response, cytotoxicity control, plate reader, cherry-pick, antagonist series (AID 743416); format: functional, cell-based
[6] = LGR2 antagonists, dose response, cell-based, HEK293, CRE-luciferase reporter, cherry pick, set 2 (AID 743343); format: functional;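 also: transfected cells were stimulated with diluted bursicon conditioned medium after compound addition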
[7] = non-specific cell cytotoxicity, dose response, cytotoxicity control for PAX8 inhibitor project, plate reader, dry powder samples (AID 743021); format: functional, cell-based
[8] = MC4R antagonists, dose response, counter-screen for LGR2 antagonist project, cell-based, plate reader, cherry pick (AID 743444); format: functional;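 also: transfected HEK 293 cells stimulated with alpha-MSH peptide; potency of inhibitors of the alpha-MSH evoked signal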
[9] = HEK293 cell cytotoxicity, dose response, cytotoxicity control, plate reader, cherry-picked samples (AID 743446); format: functional, cell-based
Cysteine protease ATG4B = Cysteine protease ATG4B (Homo sapiens, UniProt Q9Y4P1); format: functional;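 also: Fluorescence-based dose-response confirmation assay measuring inhibition of ATG4B activity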
Chain of Cysteine protease ATG4B (Q9Y4P1 whole entry): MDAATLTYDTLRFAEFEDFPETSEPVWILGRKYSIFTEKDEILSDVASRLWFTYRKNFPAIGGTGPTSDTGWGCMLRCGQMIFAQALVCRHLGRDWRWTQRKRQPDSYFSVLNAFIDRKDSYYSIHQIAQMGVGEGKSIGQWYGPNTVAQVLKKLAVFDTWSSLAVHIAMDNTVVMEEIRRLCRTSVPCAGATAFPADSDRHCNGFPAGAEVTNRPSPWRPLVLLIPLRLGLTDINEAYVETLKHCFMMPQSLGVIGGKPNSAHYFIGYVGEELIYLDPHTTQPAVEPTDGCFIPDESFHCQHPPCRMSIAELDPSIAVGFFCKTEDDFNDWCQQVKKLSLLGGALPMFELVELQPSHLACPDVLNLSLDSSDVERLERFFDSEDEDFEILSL

Phospholipase A2 = Phospholipase A2 (Homo sapiens, UniProt P04054); format: functional;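 also: confirmatory dose-response counterscreen on phospholipase A2, testing hits that came from an ultra-high-throughput screen for ATG4B inhibitors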
Chain of Phospholipase A2 (P04054 whole entry): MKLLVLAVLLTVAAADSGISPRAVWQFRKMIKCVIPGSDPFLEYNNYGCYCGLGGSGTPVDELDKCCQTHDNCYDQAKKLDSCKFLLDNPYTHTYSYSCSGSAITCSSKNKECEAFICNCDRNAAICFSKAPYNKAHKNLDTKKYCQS

Exodeoxyribonuclease V = Exodeoxyribonuclease V (Escherichia coli (strain K12), UniProt P04993+P07648+P08394); experiment: E. coli RecBCD inhibitors, dose response, counter-screen for AddAB inhibitor project, absorbance, V66 E. coli, mutant T4 phage (AID 492957); format: functional, cell-based, Escherichia coli str. K-12 substr. MG1655
[10] = Counterscreen for AddAB inhibitors: absorbance-based bacterial cell-based high throughput dose response assay for inhibitors of bacterial viability. [Related pubchem assays (depositor defined):AID435030, AID449728, AID449731, AID488942, AID488955, AID488956]; format: functional
Tumor necrosis factor = Tumor necrosis factor (Homo sapiens, UniProt P01375); experiment: TNFa-triggered NF-kB activation inhibitors, SAR follow-up, cell-based, revised (AID 2337); format: functional
Chain of Tumor necrosis factor (P01375 whole entry, the tested form may be a part): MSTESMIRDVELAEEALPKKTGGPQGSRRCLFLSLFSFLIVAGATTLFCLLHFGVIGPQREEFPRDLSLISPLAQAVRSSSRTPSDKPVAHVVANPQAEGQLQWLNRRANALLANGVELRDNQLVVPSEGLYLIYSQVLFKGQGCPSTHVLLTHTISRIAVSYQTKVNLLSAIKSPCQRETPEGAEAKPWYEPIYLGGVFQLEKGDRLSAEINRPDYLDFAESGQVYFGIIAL

[11] = molecular target: Nucleotide-binding oligomerization domain-containing protein 1 (Homo sapiens, UniProt Q9Y239); experiment: NOD1 signaling inhibitors, SAR follow-up, revised (AID 2333); format: functional
Chain of Nucleotide-binding oligomerization domain-containing protein 1 (Q9Y239 whole entry, the tested form may be a part): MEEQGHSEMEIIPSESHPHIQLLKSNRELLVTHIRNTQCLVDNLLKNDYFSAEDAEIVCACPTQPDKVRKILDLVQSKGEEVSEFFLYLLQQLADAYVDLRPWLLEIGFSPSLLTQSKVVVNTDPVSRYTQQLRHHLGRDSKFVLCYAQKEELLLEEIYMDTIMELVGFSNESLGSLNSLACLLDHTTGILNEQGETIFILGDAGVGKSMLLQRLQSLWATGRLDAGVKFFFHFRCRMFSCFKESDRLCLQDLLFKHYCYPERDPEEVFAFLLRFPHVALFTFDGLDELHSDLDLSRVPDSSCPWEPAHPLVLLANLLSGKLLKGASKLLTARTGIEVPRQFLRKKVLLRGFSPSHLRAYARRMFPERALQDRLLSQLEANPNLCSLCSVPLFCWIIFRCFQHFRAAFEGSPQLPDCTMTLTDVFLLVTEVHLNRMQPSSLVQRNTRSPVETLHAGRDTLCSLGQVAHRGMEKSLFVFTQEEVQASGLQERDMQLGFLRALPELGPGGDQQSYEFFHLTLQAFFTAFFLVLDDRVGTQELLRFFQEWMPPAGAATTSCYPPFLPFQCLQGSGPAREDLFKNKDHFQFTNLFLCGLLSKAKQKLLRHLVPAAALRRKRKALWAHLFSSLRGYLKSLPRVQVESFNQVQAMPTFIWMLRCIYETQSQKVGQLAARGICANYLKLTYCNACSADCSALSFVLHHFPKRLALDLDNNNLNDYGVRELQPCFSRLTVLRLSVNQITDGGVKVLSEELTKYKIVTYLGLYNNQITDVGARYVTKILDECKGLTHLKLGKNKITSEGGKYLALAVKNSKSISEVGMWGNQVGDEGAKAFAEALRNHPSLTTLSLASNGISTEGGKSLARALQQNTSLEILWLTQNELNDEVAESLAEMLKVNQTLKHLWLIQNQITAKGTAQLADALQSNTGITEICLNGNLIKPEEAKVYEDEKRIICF

[12] = molecular target: Nucleotide-binding oligomerization domain-containing protein 2 (Homo sapiens, UniProt Q9HC29); experiment: PubChem AID 2334; format: functional
Chain of Nucleotide-binding oligomerization domain-containing protein 2 (Q9HC29 whole entry, the tested form may be a part): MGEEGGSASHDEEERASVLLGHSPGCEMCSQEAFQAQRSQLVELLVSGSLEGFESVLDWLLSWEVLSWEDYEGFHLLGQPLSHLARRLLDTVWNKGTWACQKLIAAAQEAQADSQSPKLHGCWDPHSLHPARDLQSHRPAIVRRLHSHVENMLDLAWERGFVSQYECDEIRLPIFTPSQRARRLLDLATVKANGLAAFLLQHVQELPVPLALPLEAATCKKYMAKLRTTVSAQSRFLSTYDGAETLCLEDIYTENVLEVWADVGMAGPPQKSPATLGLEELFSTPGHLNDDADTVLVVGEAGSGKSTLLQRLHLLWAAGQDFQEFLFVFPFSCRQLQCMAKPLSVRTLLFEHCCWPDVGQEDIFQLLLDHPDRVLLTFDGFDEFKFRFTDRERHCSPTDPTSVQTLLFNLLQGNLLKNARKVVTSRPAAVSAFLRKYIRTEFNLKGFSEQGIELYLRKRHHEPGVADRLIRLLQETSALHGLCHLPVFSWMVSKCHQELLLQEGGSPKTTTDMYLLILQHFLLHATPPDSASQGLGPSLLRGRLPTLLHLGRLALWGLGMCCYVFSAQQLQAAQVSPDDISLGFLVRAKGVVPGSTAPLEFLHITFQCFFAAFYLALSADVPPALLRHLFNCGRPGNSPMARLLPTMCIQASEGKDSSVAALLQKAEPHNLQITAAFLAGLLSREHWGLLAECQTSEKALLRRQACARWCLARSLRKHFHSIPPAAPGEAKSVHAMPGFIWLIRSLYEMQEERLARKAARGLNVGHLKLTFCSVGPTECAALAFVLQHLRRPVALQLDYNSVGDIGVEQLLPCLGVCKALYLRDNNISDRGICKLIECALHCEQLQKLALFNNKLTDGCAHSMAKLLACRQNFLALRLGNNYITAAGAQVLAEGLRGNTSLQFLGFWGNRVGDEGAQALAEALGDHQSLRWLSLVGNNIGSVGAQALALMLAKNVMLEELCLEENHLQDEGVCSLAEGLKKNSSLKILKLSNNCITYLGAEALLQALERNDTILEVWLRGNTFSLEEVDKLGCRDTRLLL

HEK293 [13] = experiment: cells; conditions: Homo sapiens
HEK293 [14] = experiment: cytotoxicity in HEK293T NF-kB-Luc cells, SAR follow-up, cytotoxicity control for NF-kB activator project, cell-based, resazurin fluorescence (AID 493251); format: functional; conditions: Homo sapiens
Jurkat [15] = experiment: SAR Analysis of small molecule inhibitors of T-cell specific antigen receptor-induced NF-kB activation in a Jurkat cell line using a luminescence assay - Set 2. [Related pubchem assays (depositor defined):AID435003, AID435012, AID465]; format: functional, cell-based; conditions: Homo sapiens
HEK293 [16] = experiment: SAR Analysis of small molecule inhibitors of T-cell specific antigen receptor-induced NF-kB activation in a HEK-293T cell line using a luminescence assay - Set 2. [Related pubchem assays (depositor defined):AID435003, AID435012, AID489026]; format: functional, cell-based; conditions: Homo sapiens
Phospholipase D1 = Phospholipase D1 (Homo sapiens, UniProt Q13393); experiment: PLD1 inhibitor potency in cells, dose response (AID 602151); format: functional;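 also: cellular PLD1 assay in Calu-1 cells stimulated with PMA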
Chain of Phospholipase D1 (Q13393 whole entry): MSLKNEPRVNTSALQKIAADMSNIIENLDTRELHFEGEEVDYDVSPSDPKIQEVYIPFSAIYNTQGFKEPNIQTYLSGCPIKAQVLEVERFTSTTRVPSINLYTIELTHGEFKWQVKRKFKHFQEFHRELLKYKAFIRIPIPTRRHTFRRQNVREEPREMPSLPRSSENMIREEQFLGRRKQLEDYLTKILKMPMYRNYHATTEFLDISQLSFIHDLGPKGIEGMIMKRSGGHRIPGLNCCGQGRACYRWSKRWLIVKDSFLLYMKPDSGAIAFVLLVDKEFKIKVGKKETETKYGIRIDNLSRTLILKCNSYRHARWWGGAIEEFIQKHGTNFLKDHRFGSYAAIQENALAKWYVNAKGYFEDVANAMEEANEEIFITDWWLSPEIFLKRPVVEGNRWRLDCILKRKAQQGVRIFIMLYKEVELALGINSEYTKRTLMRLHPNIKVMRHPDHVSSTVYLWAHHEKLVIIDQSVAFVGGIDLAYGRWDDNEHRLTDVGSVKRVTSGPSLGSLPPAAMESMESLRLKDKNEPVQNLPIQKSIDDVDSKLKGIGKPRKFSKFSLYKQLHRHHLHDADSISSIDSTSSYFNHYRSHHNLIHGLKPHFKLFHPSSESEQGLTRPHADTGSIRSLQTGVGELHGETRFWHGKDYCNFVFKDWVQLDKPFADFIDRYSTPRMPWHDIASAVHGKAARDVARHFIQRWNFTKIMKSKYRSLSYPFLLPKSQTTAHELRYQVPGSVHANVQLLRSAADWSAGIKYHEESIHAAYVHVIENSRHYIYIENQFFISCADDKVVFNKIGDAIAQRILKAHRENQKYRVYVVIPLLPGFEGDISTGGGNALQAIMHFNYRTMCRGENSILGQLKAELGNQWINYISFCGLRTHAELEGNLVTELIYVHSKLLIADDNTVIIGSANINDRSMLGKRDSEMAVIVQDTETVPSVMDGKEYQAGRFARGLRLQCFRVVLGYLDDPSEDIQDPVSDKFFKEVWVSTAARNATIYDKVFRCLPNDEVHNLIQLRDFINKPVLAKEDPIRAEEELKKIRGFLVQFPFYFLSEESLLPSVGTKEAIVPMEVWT

Phospholipase D2 = Phospholipase D2 (Homo sapiens, UniProt O14939); experiment: PLD2 inhibitor potency in cells, dose response (AID 602147); format: functional;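 also: cellular assay in HEK293 cells overexpressing GFP-tagged PLD2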
[17] = molecular target: Serine/threonine-protein phosphatase (Candida dubliniensis (strain CD36 / CBS 7987 / NCPF 3949 / NRRLY-17841) (Yeast), UniProt B9W6M3); experiment: Fluorescence Cell-Based Secondary Assay to Identify Inhibitors of Calcineurin. [Related pubchem assays (depositor defined):AID1979, AID2007]; format: functional
Chain of Serine/threonine-protein phosphatase (B9W6M3 whole entry): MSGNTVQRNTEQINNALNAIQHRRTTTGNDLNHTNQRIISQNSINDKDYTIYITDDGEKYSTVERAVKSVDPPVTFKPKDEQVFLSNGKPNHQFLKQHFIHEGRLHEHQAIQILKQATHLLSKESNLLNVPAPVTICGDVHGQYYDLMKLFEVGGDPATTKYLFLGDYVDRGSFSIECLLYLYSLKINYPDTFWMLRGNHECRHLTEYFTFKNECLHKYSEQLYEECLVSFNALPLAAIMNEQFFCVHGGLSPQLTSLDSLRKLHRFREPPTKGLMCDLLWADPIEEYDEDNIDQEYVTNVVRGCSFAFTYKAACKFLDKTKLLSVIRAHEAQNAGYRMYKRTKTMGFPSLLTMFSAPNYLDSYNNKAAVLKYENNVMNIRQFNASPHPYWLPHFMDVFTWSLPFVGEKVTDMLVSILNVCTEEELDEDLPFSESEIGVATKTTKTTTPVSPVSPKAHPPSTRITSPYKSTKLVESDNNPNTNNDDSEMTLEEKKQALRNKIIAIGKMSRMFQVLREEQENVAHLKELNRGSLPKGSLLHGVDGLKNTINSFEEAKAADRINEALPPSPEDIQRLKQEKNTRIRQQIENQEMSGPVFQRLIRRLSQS

[18] = molecular target: Dual specificity protein kinase CLK1 (Homo sapiens, UniProt P49759); experiment: CLK1 kinase inhibitors, off-target check, dose response, selectivity assay for Dyrk1A inhibitor project, biochemical, cherry-picked samples (AID 588811)
[19] = molecular target: Dual specificity tyrosine-phosphorylation-regulated kinase 1A (Rattus norvegicus, UniProt Q63470); format: biochemical, Homo sapiens
[20] = growth induction of Burl-1 ts yeast mutant, dose response, counter-screen for SUMOylation pathway inhibitor project, whole organism, S. cerevisiae, luminescence (AID 463199); format: functional

Question: Which IC50 (Jurkat [1]) does the source give for `CCOc1ccc(NC(=O)Nc2cccc(C(=O)O)c2)cc1` here?
Answer: 0.85 µM (active)

Question: What about the IC50 [2] of the same molecule?
Answer: > 80 µM (inactive)

Question: What about the AC50 [3] of the same molecule?
Answer: 1.53 µM (active)

Question: What about the AC50 (Paired box protein Pax-8) of the same molecule?
Answer: 3.85 µM (active)

Question: What about the AC50 [4] of the same molecule?
Answer: 45.1 µM (active)

Question: What about the AC50 [5] of the same molecule?
Answer: > 52 µM (inactive)

Question: What about the AC50 [6] of the same molecule?
Answer: 0.303 µM (active)

Question: What about the AC50 [7] of the same molecule?
Answer: 11.7 µM (active)

Question: What about the AC50 [8] of the same molecule?
Answer: 0.319 µM (active)

Question: What about the AC50 [9] of the same molecule?
Answer: 40.4 µM (active)

Question: Which IC50 (Cysteine protease ATG4B) does the source give for `N#Cc1c(N)[nH]c2ccc(Sc3ccccc3)cc12` here?
Answer: 11.5 µM (active)

Question: And the IC50 (Phospholipase A2)?
Answer: 9.57 µM (active)

Question: For `O=C(Cc1ccc2c(c1)OCO2)NN=Cc1ccc([N+](=O)[O-])o1`, which IC50 (Exodeoxyribonuclease V) is on record?
Answer: > 39.5 µM (inactive)

Question: What about the IC50 [10] of the same molecule?
Answer: 21 µM (inactive)

Question: What about the AC50 [3] of the same molecule?
Answer: 8.55 µM (active)

Question: With `CC(C)(C)NC(=S)NNC=C1C=C(Br)C(=O)C(Br)=C1` as the molecule, how does the IC50 (Tumor necrosis factor) read?
Answer: 15.6 µM (active)

Question: What about the IC50 [11] of the same molecule?
Answer: 7.29 µM (active)

Question: And the IC50 [12]?
Answer: 7.93 µM (active)

Question: What about the IC50 (HEK293 [13]) of the same molecule?
Answer: > 20 µM (inactive)

Question: What does the source list for `CC(=O)c1cccc(NC(=O)c2ccc([N+](=O)[O-])o2)c1`?
Answer: IC50 (HEK293 [14]): 69.3 µM (inactive); IC50 (Jurkat [15]): 27.6 µM (inactive); IC50 (HEK293 [16]): 37.1 µM (inactive)

Question: Which IC50 (Phospholipase D1) does the source give for `O=C(NCCN1CCC(C(=O)NCC2CC2)CC1)c1ccc2ccccc2c1` here?
Answer: 20 µM (active)

Question: What about the IC50 (Phospholipase D2) of the same molecule?
Answer: 20 µM (active)

Question: For `O=C(Nc1nnc(SCc2ccc(Cl)cc2)s1)c1ccc2ccccc2n1`, which EC50 [17] is on record?
Answer: > 285 µM (inactive)

Question: Which AC50 [18] does the source give for `Cc1nc(N)sc1-c1csc(Nc2ccccc2)n1` here?
Answer: 18.3 µM (active)

Question: And the AC50 [19]?
Answer: 14.4 µM (active)

Question: Which AC50 [20] does the source give for `CCCCn1c(/N=C/c2ccc3c(c2)OCO3)nc2ccccc21` here?
Answer: 60 µM (active)
